From patent US5859257A, “Isoxazole compounds as cyclooxygenase inhibitors” (G. D. Searle & Co., priority 1996, dated 1999)
pIC50: −log10 of the molar value.

How the values were obtained:
[1] = test system: hyperalgesic foot withdrawal (rat); test: Rat Carrageenan-induced Analgesia Test; type: in vivo, Male Sprague-Dawley rats; conditions: oral, 3 h after carrageenan
Procedure: Rat Carrageenan-induced Analgesia Test
Male Sprague-Dawley rats were treated as previously described for the Carrageenan Foot Pad Edema test. Three hours after the injection of the carrageenan, the rats were placed in a special plexiglass container with a transparent floor having a high intensity lamp as a radiant heat source, positionable under the floor. After an initial twenty minute period, thermal stimulation was begun on either the injected foot or on the contralateral uninjected foot. A photoelectric cell turned off the lamp and timer when light was interrupted by paw withdrawal. The time until the rat withdraws its foot was then measured. The withdrawal latency in seconds was determined for the control and drug-treated groups, and percent inhibition of the hyperalgesic foot withdrawal determined.

rat paw edema = test: Rat Carrageenan Foot Pad Edema Test; type: in vivo, Male Sprague-Dawley rats; conditions: oral, 3 h after carrageenan
Procedure: Rat Carrageenan Foot Pad Edema Test
Male Sprague-Dawley rats were selected in each group so that the average body weight was as close as possible. Rats were fasted with free access to water for over sixteen hours prior to the test. […] One hour later a subplantar injection of 0.1 mL of 1% solution of carrageenan/sterile 0.9% saline was administered and the volume of the injected foot was measured with a displacement plethysmometer connected to a pressure transducer with a digital indicator. Three hours after the injection of the carrageenan, the volume of the foot was again measured.

COX-2 = test: Evaluation of COX-2 activity in vitro (PGE2 ELISA, recombinant enzyme); type: biochemical, human or murine; conditions: arachidonic acid 10 μM, pH 8.0, pre-incubation 10-20 minutes
Procedure: The COX-2 inhibition activity of the compounds of this invention illustrated in the Examples was determined by the following methods.
(§1) a. Preparation of recombinant COX baculoviruses
(§2) Recombinant COX-1 and COX-2 were prepared as scribed by Gierse et al, [J. Biochem., 305, 479-84 (1995)]. […] Recombinant baculoviruses were isolated by transfecting 4 μg of baculovirus transfer vector DNA into SF9 insect cells (2×10^8) along with 200 ng of linearized baculovirus plasmid DNA by the calcium phosphate method. See M. D. Summers and G. E. Smith, A Manual of Methods for Baculovirus Vectors and Insect Cell Culture Procedures, Texas Agric. Exp. Station Bull. 1555 (1987). Recombinant viruses were purified by three rounds of plaque purification and high titer (10^7 -10^8 pfu/mL) stocks of virus were prepared. For large scale production, SF9 insect cells were infected in 10 liter fermentors (0.5×10^6 /mL) with the recombinant baculovirus stock such that the multiplicity of infection was 0.1. After 72 hours the cells were centrifuged and the cell pellet homogenized in Tris/Sucrose (50 mM: 25%, pH 8.0) containing 1% 3-[(3-cholamidopropyl)dimethylammonio]-1-propanesulfonate (CHAPS). The nomogenate was centrifuged at 10,000×G for 30 minutes, and the resultant supernatant was stored at -80° C. before being assayed for COX activity.
(§3) COX activity was assayed as PGE2 formed/μg protein/time using an ELISA to detect the prostaglandin released. CHAPS-solubilized insect cell membranes containing the appropriate COX enzyme were incubated in a potassium phosphate buffer (50 mM, pH 8.0) containing epinephrine, phenol, and heme with the addition of arachidonic acid (10 μM). […] Any reaction between the arachidonic acid and the enzyme was stopped after ten minutes at 37° C./room temperature by transferring 40 μl of reaction mix into 160 μl ELISA buffer and 25 μM indomethacin. The PGE2 formed was measured by standard ELISA technology (Cayman Chemical).

COX-1 = test: Evaluation of COX-1 activity in vitro (PGE2 ELISA, recombinant enzyme); type: biochemical, human or murine; conditions: arachidonic acid 10 μM, pH 8.0, pre-incubation 10-20 minutes
Procedure: as §1, §2, §3

SMILES	ANALGESIA % Inhibition ([1]; @ 10 mg/kg body weight) [%]	RAT PAW EDEMA % Inhibition (rat paw edema; @ 10 mg/kg body weight) [%]	pIC50 (COX-2)	pIC50 (COX-1)	ANALGESIA % Inhibition ([1]; *@ 30 mg/kg) [%]	RAT PAW EDEMA % Inhibition (rat paw edema; *@ 30 mg/kg) [%]
Cc1onc(-c2ccccc2)c1-c1ccc(S(N)(=O)=O)cc1 [Example 1, 4-[5-Methyl-3-phenylisoxazol-4-yl]benzenesulfonamide]	33	29				
NS(=O)(=O)c1ccc(-c2c(-c3ccccc3)noc2C(F)F)cc1 [Example 1j, 4-[5-difluoromethyl-3-phenylisoxazol-4-yl]benzenesulfonamide]	28	37	> 7.00	< 4.00		
NS(=O)(=O)c1ccc(-c2c(-c3ccccc3)noc2CO)cc1 [Example 10, 4-[5-Hydroxymethyl-3-phenylisoxazol-4-yl]benzenesulfonamide]	74	57		< 4.00		
CCc1noc(-c2ccccc2)c1-c1ccc(S(N)(=O)=O)cc1 [Example 14, 4-[3-Ethyl-5-phenylisoxazol-4-yl]benzenesulfonamide]			> 7.00	4.00	27	
CC(C)(O)COCc1onc(-c2ccccc2)c1-c1ccc(S(N)(=O)=O)cc1 [Example 56, 4-[5-(2-Methyl-2-hydroxy-1-n-propyloxymethyl)-3-phenylisoxazol-4-yl]benzenesulfonamide]			6.70	< 4.00	27	29
CC(C)(O)CCCc1onc(-c2ccccc2)c1-c1ccc(S(N)(=O)=O)cc1 [Example 57, 4-[5-(4-Hydroxy-4-methylpentyl)-3-phenylisoxazol-4-yl]benzenesulfonamide]			7.00	< 4.00	5	23
NS(=O)(=O)c1ccc(-c2c(-c3ccccc3)noc2CCO)cc1 [Example 66, 4-[5-(2-Hydroxyethyl)-3-phenylisoxazol-4-yl]benzenesulfonamide]			> 7.00	< 4.00	49	43
